Where two headings read alike, the source gives them in different places.
Key:
[1] = In vivo hypocholesterolemic activity in normocholesterolemic chickens (serum lipid parameters); details: for response vs control in vivo at 4 mg/kg/day: Gallus gallus, po, 672 h
Method: (§1) Hypocholesterolemic activity was evaluated for the synthetic analogues using γ-tocotrienol as a control in normocholesterolemic chickens. Newborn male chicks (6-10 for each group) were raised on a standard corn-soybean-based control diet for two weeks and then were switched to either control or experimental diets for four weeks. Drug treatment consisted of the addition of test compound to the corn-soybean-based. At the end of the feeding period, all the birds were fasted (about 36 hours) and refed (about 48 hours) to induce cholesterolgenic enzymes prior to sacrifice. The specific activity of HMG-CoA reductase, total serum cholesterol levels, HDL/LDL cholesterol pools, and triglyceride levels (data not shown) were examined (Table II).
(§2) Effects of BMS Compounds on Lipid Parameters in Male
(§3) Orally dosed for 4-weeks at 4 mg/kg/day

HMG-CoA reductase [2] = target: T1, HMG-CoA reductase (Homo sapiens, UniProt P04035); test: HMG-CoA reductase suppression (specific activity, microsomal fraction of HepG2 cells); format: cell-based; details: 4 hours incubation, read-out: HMGR Suppression
T1 construct: assayed in the microsomal fraction isolated from parallel cultures; endogenous in cells; host or cells: HepG2 (human hepatoma)
T1 sequence (P04035 1-888): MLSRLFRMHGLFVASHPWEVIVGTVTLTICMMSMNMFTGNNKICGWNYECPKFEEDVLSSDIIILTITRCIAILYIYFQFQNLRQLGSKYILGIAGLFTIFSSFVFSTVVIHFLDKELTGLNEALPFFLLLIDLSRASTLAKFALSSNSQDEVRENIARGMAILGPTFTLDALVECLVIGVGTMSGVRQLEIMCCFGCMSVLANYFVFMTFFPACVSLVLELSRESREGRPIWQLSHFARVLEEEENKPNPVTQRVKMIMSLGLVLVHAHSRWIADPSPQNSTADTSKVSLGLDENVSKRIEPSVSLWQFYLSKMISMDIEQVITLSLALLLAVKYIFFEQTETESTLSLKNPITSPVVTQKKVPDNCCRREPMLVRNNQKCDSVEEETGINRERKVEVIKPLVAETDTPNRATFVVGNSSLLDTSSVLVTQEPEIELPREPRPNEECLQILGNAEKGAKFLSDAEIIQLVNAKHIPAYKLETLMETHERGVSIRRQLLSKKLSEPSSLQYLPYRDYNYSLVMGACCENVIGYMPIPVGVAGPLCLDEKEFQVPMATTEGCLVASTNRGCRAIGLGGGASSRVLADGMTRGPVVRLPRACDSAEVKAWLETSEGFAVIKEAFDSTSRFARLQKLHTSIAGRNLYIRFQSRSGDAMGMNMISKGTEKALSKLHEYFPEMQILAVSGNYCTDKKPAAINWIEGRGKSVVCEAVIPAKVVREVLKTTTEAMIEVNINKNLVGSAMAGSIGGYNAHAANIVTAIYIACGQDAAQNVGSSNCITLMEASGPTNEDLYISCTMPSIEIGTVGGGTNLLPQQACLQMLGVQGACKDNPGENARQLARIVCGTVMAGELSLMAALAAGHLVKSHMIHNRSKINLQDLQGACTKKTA
Method: (§4) The human hepatoma HepG2 cell culture model was employed to compare the intrinsic activities of the synthetic analogues relative to the tocotrienols. HepG2 cells were incubated with the indicated compounds for 4 hours at 10 μM. Cholesterol synthesis was assayed by ^14 C-acetate incorporation over the final hour of incubation, and HMG-CoA reductase suppression (specific activity) was assayed in the microsomal fraction isolated from parallel cultures at the end of the 4 hour incubation.

HepG2 cells = test: Cholesterol synthesis in HepG2 cell culture model (14C-acetate incorporation); format: cell-based, human; details: for activity at 10 µM: Homo sapiens, HepG2 cells, 4 hours incubation, read-out: Cholesterol Biosynthesis
Method: as §4

LDL = details: in words; cited from earlier work
[3] = man, cited from earlier work
HMG-CoA reductase [4] = test: HMG-CoA reductase specific activity in normocholesterolemic chickens; format: in vivo; details: male chickens, orally dosed for 4 weeks at 4 mg/kg/day
Method: as §1, §2, §3

[5] = test system: submitochondrial particles; details: in words; cited from earlier work
[6] = test system: rat liver microsomes and mitochondrial membranes; details: in words; cited from earlier work
[7] = male chickens, orally dosed for 4 weeks at 4 mg/kg/day, read-out: HDL-C
[8] = male chickens, orally dosed for 4 weeks at 4 mg/kg/day, read-out: LDL-C
[9] = male chickens, orally dosed for 4 weeks at 4 mg/kg/day, total serum cholesterol, read-out: Tot.-C

Compound: CC(C)=CCC/C(C)=C/CC/C(C)=C/CC/C(C)=C/CC1=C(C)C(=O)c2ccccc2C1=O [Vitamin K2, reference compound]
- response vs control in vivo at 4 mg/kg/day [1, 7]: 105%
- response vs control in vivo at 4 mg/kg/day [1, 8]: 146%
- response vs control in vivo at 4 mg/kg/day [1, 9]: 116%
- cholesterol levels in vivo ([1]; in words, Vitamin K2 (n=4), refers to Table II): appears to actually elevate cholesterol levels

Compound: CC(C)=CCC/C(C)=C/CC/C(C)=C/CC[C@]1(C)CCc2cc(O)c(C)c(C)c2O1 [γ-Tocotrienol, reference compound]
- activity at 10 µM (HMG-CoA reductase [2]): 65%
- response vs control in vivo at 4 mg/kg/day ([1]; read-out: HDL-C): 87%
- response vs control in vivo at 4 mg/kg/day ([1]; read-out: LDL-C): 54.8%
- response vs control in vivo at 4 mg/kg/day ([1]; read-out: Tot.-C): 76.3%
- activity at 10 µM (HepG2 cells): 29%

Compound: COc1c(O)c(C)c(C/C=C(\C)CC/C=C(\C)CC/C=C(\C)CC/C=C(\C)CC/C=C(\C)CC/C=C(\C)CC/C=C(\C)CC/C=C(\C)CC/C=C(\C)CCC=C(C)C)c(O)c1OC [ubiquinol-10]
- LDL oxidation inhibition (LDL): inhibitor of LDL oxidation
- LDL oxidation inhibition efficiency relative to tocopherol (LDL): much more efficient than tocopherol

Compound: CC(C)=CCC/C(C)=C/CC/C(C)=C/CCC(O)CCC1=CC(=O)C(C)=C(C)C1=O (stereo not drawn) [Example 12, 5-(3-Hydroxy-7,11,15-Trimethyl-6(E),10(E),14-Hexadecatrienyl)-2,3-Dimethyl-2,5-Cyclohexadiene-1,4-Dione]
- activity at 10 µM (HMG-CoA reductase [2]): 74%
- response vs control in vivo at 4 mg/kg/day [1, 7]: 95%
- response vs control in vivo at 4 mg/kg/day [1, 8]: 73%
- response vs control in vivo at 4 mg/kg/day [1, 9]: 82.7%
- activity at 10 µM (HepG2 cells): 3%

Compound: COC1=C(OC)C(=O)C(CCCCCCCCCCO)=C(C)C1=O [Idebenone]
- absorption rate ([3]; in words): absorbed rapidly
- intestinal absorption ([3]; in words): low intestinal absorption
- bioavailability ([3]; low intestinal absorption): 15-30%

Compound: CC(C)=CCC/C(C)=C/CC/C(C)=C/CCC(C)(O)CCC1=CC(=O)C(C)=C(C)C1=O (stereo not drawn) [Example 15, 5-(3-Hydroxy-3,7,11,15-Tetramethyl-6(E),10(E),14-Hexadecatrienyl)-2,3-Dimethyl-2,5-cyclohexadiene-1,4-Dione]
- activity at 10 µM (HMG-CoA reductase [2]): 79%
- HMGR (HMG-CoA reductase [4]): 67.4 % of Control
- response vs control in vivo at 4 mg/kg/day [1, 7]: 90.5%
- response vs control in vivo at 4 mg/kg/day [1, 8]: 59%
- response vs control in vivo at 4 mg/kg/day [1, 9]: 76.7%
- activity in the chick model, relative to γ-tocotrienol ([1]; in words): comparable activity to γ-tocotrienol in the chick model
- cholesterol/HMGR suppression in vivo, relative to γ-tocotrienol ([1]; in words, refers to Table II): very similar cholesterol/HMGR suppression in vitro and in vivo
- activity at 10 µM (HepG2 cells): 89%
- activity in the cholesterol suppression assay in vitro (HepG2 cells; in words): very active in the cholesterol suppression assay in vitro
- cholesterol/HMGR suppression in vitro, relative to γ-tocotrienol (HepG2 cells; in words, refers to Table I): very similar cholesterol/HMGR suppression in vitro and in vivo

Compound: CC(C)=CCC/C(C)=C/CC/C(C)=C/CCC(O)CCC1=CC(=O)C=CC1=O (stereo not drawn) [Example 11, 2-(3-Hydroxy-7,11,15-Trimethyl-6(E),10(E),14-Hexadecatrienyl)-2,5-Cyclohexadiene-1,4-Dione]
- response vs control in vivo at 4 mg/kg/day [1, 7]: 96.9%
- response vs control in vivo at 4 mg/kg/day [1, 8]: 80.1%
- response vs control in vivo at 4 mg/kg/day [1, 9]: 87.2%
- activity at 10 µM (HepG2 cells): 75%

Compound: COc1c(O)c(C)c(C/C=C(\C)CC/C=C(\C)CC/C=C(\C)CC/C=C(\C)CC/C=C(\C)CC/C=C(\C)CC/C=C(\C)CC/C=C(\C)CC/C=C(\C)CCC=C(C)C)c(O)c1OC [Ubiquinol]
- lipid peroxidation inhibition [5]: inhibits lipid peroxidation

Compound: CC(C)=CCC/C(C)=C/CC/C(C)=C/CC1=CC(=O)C=CC1=O [Example 10, 2-(3,7,11-Trimethyl-2(E),6(E),10-Dodecatrienyl)-2,5-Cyclohexadiene-4-Dione]
- activity at 10 µM (HepG2 cells): 95%

Compound: COC1=C(OC)C(=O)C(C/C=C(\C)CC/C=C(\C)CC/C=C(\C)CC/C=C(\C)CC/C=C(\C)CC/C=C(\C)CC/C=C(\C)CC/C=C(\C)CC/C=C(\C)CCC=C(C)C)=C(C)C1=O [ubiquinone]
- effect on tocopherol [6]: sparing effect on tocopherol

Compound: CC(C)=CCC/C(C)=C/CC/C(C)=C/CCC(C)(O)CCC1=CC(=O)C=CC1=O (stereo not drawn) [Example 16, 2-(3-Hydroxy-3,7,11,15-Tetramethyl-6(E),10(E),14-Hexadecatrienyl)-2,5-cyclohexadiene-1,4-Dione Hydrate]
- response vs control in vivo at 4 mg/kg/day [1, 7]: 95.8%
- response vs control in vivo at 4 mg/kg/day [1, 8]: 94.9%
- response vs control in vivo at 4 mg/kg/day [1, 9]: 93.8%
- activity at 10 µM (HepG2 cells): 74%

Compound: CC1=C(C)C(=O)C(CCC(C)(O)CC/C=C(\C)CCc2cccc(C(F)(F)F)c2)=CC1=O (stereo not drawn) [Example 13, 5-(3,7-Dimethyl-3-Hydroxy-9-[3-(Trifluoromethyl)phenyl]-6(E)-Nonenyl)-2,3-Dimethyl-2,5-cyclohexadiene-1,4-Dione]
- HMGR (HMG-CoA reductase [4]): 59.9 % of Control
- response vs control in vivo at 4 mg/kg/day [1, 7]: 75.6%
- response vs control in vivo at 4 mg/kg/day [1, 8]: 32%
- response vs control in vivo at 4 mg/kg/day [1, 9]: 57.7%

Compound: CC(C)=CCC/C(C)=C/CC/C(C)=C/CCC(C)(O)CCC1=CC(=O)c2ccccc2C1=O (stereo not drawn) [Example 14, 2-(3-Hydroxy-3,7,11,15-Tetramethyl-6(E),10(E),14-Hexadecatrienyl)-1,4-Naphthalene-1,4-dione]
- response vs control in vivo at 4 mg/kg/day [1, 7]: 94.7%
- response vs control in vivo at 4 mg/kg/day [1, 8]: 69.4%
- response vs control in vivo at 4 mg/kg/day [1, 9]: 82.4%
- activity at 10 µM (HepG2 cells): 10%

Reference: patent US5318993A, “Antihyperlipidemic benzoquinones” (Bristol-Myers Squibb Company, priority 1993, dated 1994)
